In article PMC9323974, “Palladium(II) Complexes of Substituted Salicylaldehydes: Synthesis, Characterization and Investigation of Their Biological Profile” (Pharmaceuticals, 2022):
Values joined by “and” are separate entries in the source; they are usually repeats but may differ in a detail not shown here. Equal values may be shown once. Read-outs that look alike come from different tables or passages of the source.

Legend:
[1] = DPPH radical scavenging; conditions: compound 0.1 mM
Method: (§1) S1 Antioxidant biological assay
The antioxidant activity of the compounds was evaluated via their ability to scavenge in
vitro free radicals such as DPPH and ABTS and to reduce H2O2. All the experiments were carried
S1.1 Determination of the reducing activity of the stable radical DPPH
To an ethanolic solution of DPPH (0.1 mM) an equal volume solution of the compounds
(0.1 mM) in ethanol was added. Absolute ethanol was also used as control solution. The absorbance
at 517 nm was recorded at room temperature after 30 and 60 min, in order to examine the possible
existence of a potential time–dependence of the DPPH radical scavenging activity [S1]. The DPPH–
scavenging activity of the compounds was expressed as the percentage reduction of the absorbance
values of the initial DPPH solution (DPPH%). NDGA and BHT were used as reference compounds. […]

[2] = tested on: Xanthomonas campestris ATCC 1395; test: MIC determination; format: cell-based; conditions: for MIC: Xanthomonas campestris, ATCC1395, 24 h, read-out: MIC X. campestris; for MIC X. campestris: 24 h
Method: (§2) S2 Antibacterial activity
(§3) The antimicrobial activity of the compounds was evaluated by determining their respective MIC values towards two Gram–(–) (Escherichia coli NCTC 29212 (E. coli) and Xanthomonas campestris ATCC 1395 (X. campestris)) and two Gram–(+) (Staphylococcus aureus ATCC 6538 (S. aureus) and Bacillus subtilis ATCC 6633 (B. subtilis)) bacterial species. Cultures of these microbial strains were grown on a rich selective agar medium and stored at 4°C. The selective media used were Nutrient Agar or Broth for B. subtilis and S. aureus, Yeast Mold Agar or Broth for X. campestris and Luria Agar or Broth for E. coli. Cells picked from the surface of the stored cultures were used to initiate liquid pre–cultures of the same selective medium at an initial turbidity of roughly 1 McFarland unit. Pre–cultures were incubated for 24 h in a rotary shaking incubator and subsequently they were used to inoculate the test cultures used for the determination of MIC at an initial turbidity of 0.5 McFarland units. The test cultures consisted of Mueller –Hinton broth (Deben Diagnostics Ltd) containing different concentrations of the compounds.
(§4) Different concentrations were achieved as follows: the compounds were freshly dissolved in DMSO to a concentration of 1 mg mL–1 and they were diluted with DMSO, using the method of progressive double dilution. Therefore, working solutions with decreasing concentrations of the compounds under investigation were achieved. The working solutions were subsequently diluted to the final desired concentration by addition to the growth medium at a proportion of 2:98. MIC values were determined as the lowest concentrations of the tested compounds that inhibited visible growth of each respective organism after a 24 h incubation [ S3]. Bacterial growth was determined by measuring the turbidity of appropriately diluted cultures at 600 nm with reference to equally diluted sterile growth medium and the inhibition achieved was calculated by comparing the turbidity of each culture to the average of the turbidity of three non–inhibited cultures. All test cultures were grown in triplicates and for the determination of MIC, growth had to be inhibited in at least two cultures of the triplicate. Incubation temperature at all stages was 37°C except for X. campestris that was cultivated at 28°C [S4].

[3] = tested on: Escherichia coli NCTC 29212; test: MIC determination; format: cell-based; conditions: for MIC: read-out: MIC E. coli
Method: as §2, §3, §4

[4] = tested on: Staphylococcus aureus ATCC 6538; test: MIC determination; format: cell-based; conditions: for MIC: read-out: MIC S. aureus
Method: as §2, §3, §4

[5] = tested on: Bacillus subtilis ATCC 6633; test: MIC determination; format: cell-based; conditions: for MIC: read-out: MIC B. subtilis
Method: as §2, §3, §4

[6] = target: T1, BSA (Bos taurus, UniProt P02769); test: Competitive BSA-fluorescence studies with warfarin and ibuprofen; format: binding, bovine
T1 construct: purchased Sigma-Aldrich Co
Method: where n = the number of binding sites per albumin and K = the SA–binding constant. The K constant (M−1) is calculated from the slope in plots (ΔI/I0)/[Q] versus (ΔI/I0) and n is given by the ratio of y intercept to the slope [S9].
S4.2 Competitive SA–fluorescence studies with warfarin and ibuprofen
The competitive studies with warfarin or ibuprofen (site probes) [S10] were performed by tryptophan fluorescence quenching experiments using a fixed concentration of the BSA and site probes (3 μM) in buffer (containing 15 mM trisodium citrate and 150 mM NaCl at pH 7.0). The fluorescence emission spectra were recorded in the presence of increasing amounts of the compounds as quenchers with an excitation wavelength of 295 nm. The Scatchard equation (eq. 7) [S6] and plots were applied on the corrected SA–fluorescence emission spectra in order to determine the BSA–binding constant of the compounds in the presence of warfarin or ibuprofen.

[7] = Reduction of hydrogen peroxide; conditions: compound 0.1 mM
Method: as §1
(§5) The antioxidant activity of the compounds was evaluated via their ability to scavenge in […]
(§6) vitro free radicals such as DPPH and ABTS and to reduce H2O2. […]
S1.3 Reduction of hydrogen peroxide
The ability of the compounds to reduce hydrogen peroxide (H2O2) was estimated according […]
to the method described in the literature [S2]. The reaction mixture contained 20 μL of each of the […]
tested compounds (0.1 mM) and 5 μL H 2O2 solution (40 mM) in phosphate buffer (50 mM, pH 7.4).
The absorbance was measured at 230 nm after 10 min. The antioxidant activity (reduction of […]

[8] = target: T2, HSA (Homo sapiens, UniProt P02768); test: Competitive HSA-fluorescence studies with warfarin and ibuprofen; format: binding
T2 construct: purchased Sigma-Aldrich Co

[9] = ABTS radical cation scavenging; conditions: compound 0.1 mM
Method: as §1, §5, §6
S1.2 Assay of radical cation ABTS–scavenging activity
The ABTS assay was performed to determine the activity of the compounds to scavenge the […]
radical cation ABTS. Initially, a water solution of ABTS was prepared (2 mM). ABTS radical cation […]
(ABTS+·) was produced by the reaction of ABTS stock solution with potassium persulfate (0.17 […]
mM) and the mixture was stored in the dark at room temperature for 12–16 h before its use. The […]
ABTS was oxidized incompletely because the stoichiometric reaction ratio of ABTS and potassium […]
persulfate is 1:0.5. The absorbance became maximal and stable only after more than 6 h of reaction […]
although the oxidation of the ABTS started immediately. The radical was stable in this form for […]
more than 2 days when allowed to stand in the dark at room temperature. Afterwards, the ABTS+· […]
solution was diluted in ethanol to an absorbance of 0.70 at 734 nm and 10 μL of diluted compounds or standards (0.1 mM) in DMSO were added. The absorbance was recorded out exactly 1 min after […]
initial mixing [S1]. The ABTS radical scavenging activity was expressed as the percentage inhibition of the absorbance of the initial ABTS solution (ABTS%). […]

[10] = Escherichia coli, NCTC29212, 24 h
[11] = Staphylococcus aureus, ATCC6538, 24 h
[12] = Bacillus subtilis, ATCC6633, 24 h
[13] = read-out: BSA-binding constant K, Marker: Ibuprofen, ibuprofen 3 μM
[14] = read-out: BSA-binding constant K, Marker: Warfarin, warfarin 3 μM
[15] = read-out: HSA-binding constant K, Marker: Ibuprofen, ibuprofen
[16] = read-out: HSA-binding constant K, Marker: Warfarin, warfarin

T2 sequence (P02768 25-609): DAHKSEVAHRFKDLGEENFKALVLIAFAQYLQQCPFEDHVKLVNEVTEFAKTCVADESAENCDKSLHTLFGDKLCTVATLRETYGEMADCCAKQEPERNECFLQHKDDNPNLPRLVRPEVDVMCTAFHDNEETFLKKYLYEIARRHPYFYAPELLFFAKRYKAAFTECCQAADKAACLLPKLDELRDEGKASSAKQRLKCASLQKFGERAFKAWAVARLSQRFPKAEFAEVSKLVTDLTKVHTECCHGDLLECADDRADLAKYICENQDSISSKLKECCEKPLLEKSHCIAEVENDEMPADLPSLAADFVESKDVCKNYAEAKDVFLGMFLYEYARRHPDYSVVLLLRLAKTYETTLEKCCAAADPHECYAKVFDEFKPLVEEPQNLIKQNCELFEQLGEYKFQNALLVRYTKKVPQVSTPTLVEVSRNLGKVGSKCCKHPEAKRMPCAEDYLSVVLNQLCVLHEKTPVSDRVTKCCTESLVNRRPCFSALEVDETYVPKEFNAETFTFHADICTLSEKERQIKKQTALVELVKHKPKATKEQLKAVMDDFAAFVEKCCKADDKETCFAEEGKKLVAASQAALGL
T1 sequence (P02769 25-607): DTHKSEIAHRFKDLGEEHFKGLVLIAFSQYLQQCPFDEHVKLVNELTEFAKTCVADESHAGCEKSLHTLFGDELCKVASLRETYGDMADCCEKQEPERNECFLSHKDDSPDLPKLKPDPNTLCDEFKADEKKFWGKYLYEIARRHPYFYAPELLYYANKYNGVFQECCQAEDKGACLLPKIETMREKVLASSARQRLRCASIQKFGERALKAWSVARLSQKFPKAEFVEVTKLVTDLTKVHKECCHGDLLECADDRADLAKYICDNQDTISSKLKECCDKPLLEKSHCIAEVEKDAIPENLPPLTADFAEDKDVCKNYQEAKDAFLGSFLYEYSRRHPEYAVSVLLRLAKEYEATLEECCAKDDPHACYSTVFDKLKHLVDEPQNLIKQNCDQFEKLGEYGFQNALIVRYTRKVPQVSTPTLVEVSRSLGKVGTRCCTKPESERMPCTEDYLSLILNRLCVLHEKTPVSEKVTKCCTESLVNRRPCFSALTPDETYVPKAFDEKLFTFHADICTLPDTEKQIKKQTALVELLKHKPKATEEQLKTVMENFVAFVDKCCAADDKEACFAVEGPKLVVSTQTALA

SMILES	DPPH% (30 min) [1]	DPPH% (60 min) [1]	MIC [2]	MIC [3, 10]	H2O2% [7]	ABTS% [9]	MIC X. campestris [2]	MIC X. campestris ([2]; value in parentheses)	MIC E. coli ([3]; 24 h)	MIC ([3]; 24 h, value in parentheses)	MIC S. aureus ([4]; 24 h)	MIC ([4]; 24 h, value in parentheses)	MIC B. subtilis ([5]; 24 h)	MIC ([5]; 24 h, value in parentheses)	BSA-binding constant K, Marker: Ibuprofen ([6]; ibuprofen 3 μM)	BSA-binding constant K, No Marker [6]	BSA-binding constant K, Marker: Warfarin ([6]; warfarin 3 μM)	HSA-binding constant K, Marker: Ibuprofen ([8]; ibuprofen)	HSA-binding constant K, No Marker [8]	HSA-binding constant K, Marker: Warfarin ([8]; warfarin)	other results
CCN(CC)c1ccc(C=O)c(O)c1 [4-Et2N-saloH, 4-diethylamino-salicylaldehyde, reference compound]	2.47 ± 0.09%	3.20 ± 0.08%	> 200 µg/mL and > 1040 µM	> 200 µg/mL and > 1040 µM	76.57 ± 0.71%	25.84 ± 0.34%															MIC [4, 11]: > 200 µg/mL and > 1040 µM; MIC [5, 12]: > 200 µg/mL and > 1040 µM; Kd [6]: 2.4 µM; Kd [6, 13]: 20.6 µM; Kd [6, 14]: 7.52 µM; Kd [8]: 2.48 µM; Kd [8, 15]: 23.8 µM; Kd [8, 16]: 4.39 µM
COc1ccc(C=O)c(O)c1 [4-OMe-saloH, 4-methoxy-salicylaldehyde, reference compound]	4.16 ± 0.10%	6.27 ± 0.25%	> 200 µg/mL and > 1310 µM	> 200 µg/mL and > 1310 µM	94.24 ± 0.67%	40.83 ± 0.44%															MIC [4, 11]: > 200 µg/mL and > 1310 µM; MIC [5, 12]: > 200 µg/mL and > 1310 µM; Kd [6]: 2.43 µM; Kd [6, 13]: 12.7 µM; Kd [6, 14]: 68.5 µM; Kd [8]: 10.3 µM; Kd [8, 15]: 21.3 µM; Kd [8, 16]: 60.2 µM
O=Cc1cc(F)ccc1O [5-F-saloH, 5-fluoro-salicylaldehyde, reference compound]	3.96 ± 1.16%	5.56 ± 1.06%	200 µg/mL and 1430 µM	200 µg/mL and 1430 µM	71.84 ± 0.95%	19.57 ± 0.58%															MIC [4, 11]: 200 µg/mL and 1430 µM; MIC [5, 12]: 200 µg/mL and 1430 µM; Kd [6]: 23.2 µM; Kd [6, 13]: 21.7 µM; Kd [6, 14]: 33.1 µM; Kd [8]: 21.5 µM; Kd [8, 15]: 16.1 µM; Kd [8, 16]: 33.1 µM
CCN(CC)c1ccc(C=O)c([O][Pd][O]c2cc(N(CC)CC)ccc2C=O)c1 [Complex 1, [Pd(4-Et2N-salo)2]]	2.45 ± 0.09%	4.00 ± 0.53%			18.19 ± 0.29%	97.05 ± 0.48%	200 µg/mL	407 µM	100 µg/mL	204 µM	100 µg/mL	204 µM	100 µg/mL	204 µM	8.94 (±0.63) × 10^4 M^−1	1.08 (±0.06) × 10^5 M^−1	9.34 (±0.60) × 10^4 M^−1	1.86 (±0.12) × 10^5 M^−1	1.25 (±0.06) × 10^5 M^−1	6.89 (±0.28) × 10^4 M^−1	
O=Cc1cc(Br)cc(Br)c1[O][Pd][O]c1c(Br)cc(Br)cc1C=O [Complex 2, [Pd(3,5-diBr-salo)2]]	7.99 ± 0.24%	14.63 ± 0.53%			49.21 ± 0.32%	50.46 ± 0.91%	25 µg/mL	38 µM	25 µg/mL	38 µM	25 µg/mL	38 µM	25 µg/mL	38 µM	1.05 (±0.09) × 10^5 M^−1	1.50 (±0.06) × 10^6 M^−1	9.64 (±0.70) × 10^4 M^−1	3.23 (±0.13) × 10^5 M^−1	4.12 (±0.15) × 10^5 M^−1	1.43 (±0.09) × 10^5 M^−1	
O=Cc1cc(Cl)cc(Cl)c1[O-].O=Cc1cc(Cl)cc(Cl)c1[O-].[Pd+2] [Complex 3, [Pd(3,5-diCl-salo)2]]	4.60 ± 0.20%	2.91 ± 0.11%			51.26 ± 0.70%	63.45 ± 0.38%	25 µg/mL	51 µM	25 µg/mL	51 µM	25 µg/mL	51 µM	50 µg/mL	103 µM	2.89 (±0.10) × 10^5 M^−1	7.82 (±0.24) × 10^5 M^−1	3.26 (±0.34) × 10^5 M^−1	3.78 (±0.14) × 10^5 M^−1	4.10 (±0.17) × 10^5 M^−1	2.47 (±0.09) × 10^5 M^−1	
O=Cc1cc(F)ccc1[O-].O=Cc1cc(F)ccc1[O-].[Pd+2] [Complex 4, [Pd(5-F-salo)2]]	14.82 ± 0.45%	13.61 ± 0.48%			48.31 ± 0.67%	63.30 ± 0.53%	100 µg/mL	259 µM	100 µg/mL	259 µM	100 µg/mL	259 µM	100 µg/mL	259 µM	9.27 (±0.48) × 10^4 M^−1	8.79 (±0.13) × 10^4 M^−1	6.05 (±0.27) × 10^4 M^−1	1.10 (±0.08) × 10^5 M^−1	1.38 (±0.05) × 10^5 M^−1	8.98 (±0.82) × 10^4 M^−1	BSA drug site preference ([6]; drug site I (warfarin) vs II (ibuprofen)): drug site I
